Among the test systems are CAKI-1 renal; COLO 205 colon; DU-145 prostate; HOP-92 NSCLC; HT29 colon; IGROV1 ovarian; K-562 leukemia; LOX IMVI melanoma; M14 melanoma; MCF7 breast; MDA-MB-231 breast; MDA-N; OVCAR-4 ovarian; OVCAR-8 ovarian; SF-295 CNS; SF-539 CNS; SK-MEL-28 melanoma; UACC-257 melanoma; BT-549 breast; CCRF-CEM leukemia.
Holding throughout (experiment): DTP human tumour cell line panel, 48 h

Structures are written as SMILES.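 Compound exposure: 48 hours, 5 concentrations, 96-well plates. The concentration for full growth arrest is given as TGI.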 A value given as a limit tells only on which side of the number the result lay.

One may read the TGI as the concentration giving total growth inhibition. A high value points to less potent growth arrest.

As to `CO/N=C\c1ccc2c(c1)Sc1ccccc1O2`, the TGI with CAKI-1 renal, in the test with COLO 205 colon, in the test on DU-145 prostate, in the test with HOP-92 NSCLC, in the test on HT29 colon and in the test with IGROV1 ovarian was over 100 µM throughout. Further, the TGI in the test with K-562 leukemia, in the test with LOX IMVI melanoma, with M14 melanoma, in the test on MCF7 breast, in the test on MDA-MB-231 breast and in the test with MDA-N was over 100 µM in each case. Also, the TGI with OVCAR-4 ovarian, in the test on OVCAR-8 ovarian, in the test on SF-295 CNS, in the test with SF-539 CNS, in the test with SK-MEL-28 melanoma and with UACC-257 melanoma was over 100 µM in each case.

Regarding `COc1ccc2cc(CNCCCCCCCCNCc3ccc4cc(OC)ccc4c3)ccc2c1`, the TGI is 9.97 µM with BT-549 breast; over 100 µM in the test on CAKI-1 renal; 7.27 µM in the test on CCRF-CEM leukemia; 29.6 µM in the test on COLO 205 colon; over 100 µM with DU-145 prostate; 10 µM in the test with HOP-92 NSCLC. Besides, the TGI in the test with HT29 colon is 8.46 µM; with IGROV1 ovarian it was over 100 µM; with K-562 leukemia, 47.7 µM; in the test with LOX IMVI melanoma it was 43.4 µM; in the test on MCF7 breast it was over 100 µM; with MDA-MB-231 breast, over 100 µM. Moreover, the TGI with OVCAR-4 ovarian was found to be 9.55 µM; with SF-295 CNS it was 41.2 µM; with SK-MEL-28 melanoma, 9.8 µM; with UACC-257 melanoma, 10.1 µM.

In the case of `O=c1cc(-c2ccccc2)[nH]c2cc(F)cc(F)c12`, the TGI was over 100 µM in the test on CAKI-1 renal; over 100 µM in the test with CCRF-CEM leukemia; 38.9 µM with COLO 205 colon; over 100 µM with HOP-92 NSCLC; over 100 µM in the test with HT29 colon; over 100 µM with IGROV1 ovarian. In addition, the TGI with K-562 leukemia, in the test with LOX IMVI melanoma, in the test on M14 melanoma, with OVCAR-4 ovarian, in the test with OVCAR-8 ovarian and in the test with SF-295 CNS was over 100 µM throughout. For the same compound, the TGI in the test on SF-539 CNS is 85.5 µM; with SK-MEL-28 melanoma it was over 100 µM; in the test with UACC-257 melanoma it was over 100 µM.

Consider `COC(=O)CCC1(CCC(=O)OC)CCCCCCC(CCC(=O)OC)(CCC(=O)OC)C(=O)C1=O`, for which the concentration for total growth inhibition (TGI) with CAKI-1 renal, with COLO 205 colon, in the test on DU-145 prostate, in the test with HOP-92 NSCLC, with HT29 colon and in the test with IGROV1 ovarian was over 100 µM in each case. The TGI in the test on K-562 leukemia, in the test on LOX IMVI melanoma, in the test with M14 melanoma, in the test on MCF7 breast, in the test on MDA-N and with OVCAR-8 ovarian was over 100 µM throughout. The TGI with SF-295 CNS, in the test on SF-539 CNS, in the test with SK-MEL-28 melanoma and in the test with UACC-257 melanoma was over 100 µM throughout.

With `CC(C)(C)OC(=O)N1NC(c2ccccc2)CC1c1ccccc1` (stereo not given), the TGI with CAKI-1 renal is over 100 µM; with CCRF-CEM leukemia, 71.5 µM; with COLO 205 colon it was 41.2 µM; with DU-145 prostate, over 100 µM; in the test with HOP-92 NSCLC, over 100 µM; in the test on HT29 colon, over 100 µM. Moreover, the TGI in the test with K-562 leukemia was over 100 µM; with M14 melanoma, 58.8 µM; with MCF7 breast, 61 µM; with MDA-N, over 100 µM; in the test on OVCAR-8 ovarian, over 100 µM; in the test on SF-295 CNS, over 100 µM. Moreover, the TGI with SF-539 CNS and with UACC-257 melanoma was over 100 µM in each case.

As for `COc1ccc(-c2c(-c3ccc(OC)cc3)n3c(=O)n(C)c(=O)n23)cc1`, the TGI is over 100 µM with CAKI-1 renal; over 100 µM in the test with CCRF-CEM leukemia; over 100 µM with COLO 205 colon; 65.2 µM in the test on DU-145 prostate; 76 µM in the test on HOP-92 NSCLC; over 100 µM in the test on IGROV1 ovarian. Moreover, the TGI in the test with K-562 leukemia, with LOX IMVI melanoma, in the test with M14 melanoma, in the test on MCF7 breast, in the test on MDA-MB-231 breast and in the test with OVCAR-4 ovarian was over 100 µM each time. Also, the TGI was 52.9 µM with OVCAR-8 ovarian; over 100 µM in the test on SF-295 CNS; 72.9 µM in the test on SF-539 CNS; over 100 µM in the test on SK-MEL-28 melanoma; over 100 µM in the test with UACC-257 melanoma.

`Cc1ccc(S(=O)C[C@](NC(=O)OCc2ccccc2)(Sc2ccccc2)C(F)F)cc1` (stereo not given in full): the TGI was found to be 50.9 µM in the test on BT-549 breast; 50.4 µM with CAKI-1 renal; 5.56 µM with CCRF-CEM leukemia; 35.9 µM with COLO 205 colon; 45.6 µM with DU-145 prostate; 42.9 µM in the test on HOP-92 NSCLC. Also, the TGI in the test with HT29 colon is 31.1 µM; in the test on IGROV1 ovarian it was 22.7 µM; in the test on K-562 leukemia it was over 100 µM; in the test on LOX IMVI melanoma, 19.4 µM; in the test with M14 melanoma, over 100 µM; in the test with MDA-MB-231 breast, 52.4 µM. Besides, the TGI was 41.4 µM with OVCAR-4 ovarian; 48.5 µM with OVCAR-8 ovarian; 34.4 µM in the test on SF-295 CNS; 38.1 µM with SK-MEL-28 melanoma; 31.5 µM in the test on UACC-257 melanoma.

On to `O=c1[nH]nc(Cc2ccccc2)n1/N=C/c1ccco1`, for which the TGI in the test on BT-549 breast, in the test on CAKI-1 renal, in the test on CCRF-CEM leukemia, with COLO 205 colon, in the test on DU-145 prostate and with HT29 colon was over 100 µM throughout. The total growth inhibition concentration (TGI) in the test on K-562 leukemia, in the test with LOX IMVI melanoma, in the test on M14 melanoma, in the test on MCF7 breast, in the test with MDA-MB-231 breast and in the test on OVCAR-4 ovarian was over 100 µM each time. Further, the TGI with OVCAR-8 ovarian, with SF-295 CNS, in the test with SF-539 CNS, in the test on SK-MEL-28 melanoma and in the test with UACC-257 melanoma was over 100 µM each time.
